This passage reports kinase still bound, per cent of control results from the kinase profiling compilation of Christmann-Franck et al. (2016).

Targets include MAP2K3 (human) (UniProt P46734); MAP3K5 (human) (UniProt Q99683); PIM2 (human) (UniProt Q9P1W9); CLK3 (human) (UniProt P49761); CAMKK1 (human) (UniProt Q8N5S9); STK17A (human) (UniProt Q9UEE5); RIPK4 (human) (UniProt P57078); PLK4 (human) (UniProt O00444); MYLK (human) (UniProt Q15746); DYRK1B (human) (UniProt Q9Y463); MYLK3 (human) (UniProt Q32MK0); PIP5K1A (human) (UniProt Q99755); ULK2 (human) (UniProt Q8IYT8); STK17B (human) (UniProt O94768); MYLK4 (human) (UniProt Q86YV6); PIM1 (human) (UniProt P11309); DAPK2 (human) (UniProt Q9UIK4); HIPK1 (human) (UniProt Q86Z02); CAMKK2 (human) (UniProt Q96RR4); TTK (human) (UniProt P33981); MKNK1 (human) (UniProt Q9BUB5); RIPK2 (human) (UniProt O43353); CSNK1D (human) (UniProt P48730); KIT (human) (UniProt P10721); NEK2 (human) (UniProt P51955); RIOK2 (human) (UniProt Q9BVS4); FLT3 (human) (UniProt P36888); MAP4K2 (human) (UniProt Q12851); MAP4K4 (human) (UniProt O95819); ACVR1 (human) (UniProt Q04771).

Assay in all cases: KINOMEscan competition binding
Holding throughout (conditions): compound 10.0 µM

The target in test [1] is JAK3 JH1 catalytic (human) (UniProt P52333).
The test system of test [2] is KIT (human), P10721 [V559D/T670I].
Test [3] has as its system KIT (human), P10721 [D816V].

Chain of MAP3K5 (human) (Q99683 whole entry, looked up): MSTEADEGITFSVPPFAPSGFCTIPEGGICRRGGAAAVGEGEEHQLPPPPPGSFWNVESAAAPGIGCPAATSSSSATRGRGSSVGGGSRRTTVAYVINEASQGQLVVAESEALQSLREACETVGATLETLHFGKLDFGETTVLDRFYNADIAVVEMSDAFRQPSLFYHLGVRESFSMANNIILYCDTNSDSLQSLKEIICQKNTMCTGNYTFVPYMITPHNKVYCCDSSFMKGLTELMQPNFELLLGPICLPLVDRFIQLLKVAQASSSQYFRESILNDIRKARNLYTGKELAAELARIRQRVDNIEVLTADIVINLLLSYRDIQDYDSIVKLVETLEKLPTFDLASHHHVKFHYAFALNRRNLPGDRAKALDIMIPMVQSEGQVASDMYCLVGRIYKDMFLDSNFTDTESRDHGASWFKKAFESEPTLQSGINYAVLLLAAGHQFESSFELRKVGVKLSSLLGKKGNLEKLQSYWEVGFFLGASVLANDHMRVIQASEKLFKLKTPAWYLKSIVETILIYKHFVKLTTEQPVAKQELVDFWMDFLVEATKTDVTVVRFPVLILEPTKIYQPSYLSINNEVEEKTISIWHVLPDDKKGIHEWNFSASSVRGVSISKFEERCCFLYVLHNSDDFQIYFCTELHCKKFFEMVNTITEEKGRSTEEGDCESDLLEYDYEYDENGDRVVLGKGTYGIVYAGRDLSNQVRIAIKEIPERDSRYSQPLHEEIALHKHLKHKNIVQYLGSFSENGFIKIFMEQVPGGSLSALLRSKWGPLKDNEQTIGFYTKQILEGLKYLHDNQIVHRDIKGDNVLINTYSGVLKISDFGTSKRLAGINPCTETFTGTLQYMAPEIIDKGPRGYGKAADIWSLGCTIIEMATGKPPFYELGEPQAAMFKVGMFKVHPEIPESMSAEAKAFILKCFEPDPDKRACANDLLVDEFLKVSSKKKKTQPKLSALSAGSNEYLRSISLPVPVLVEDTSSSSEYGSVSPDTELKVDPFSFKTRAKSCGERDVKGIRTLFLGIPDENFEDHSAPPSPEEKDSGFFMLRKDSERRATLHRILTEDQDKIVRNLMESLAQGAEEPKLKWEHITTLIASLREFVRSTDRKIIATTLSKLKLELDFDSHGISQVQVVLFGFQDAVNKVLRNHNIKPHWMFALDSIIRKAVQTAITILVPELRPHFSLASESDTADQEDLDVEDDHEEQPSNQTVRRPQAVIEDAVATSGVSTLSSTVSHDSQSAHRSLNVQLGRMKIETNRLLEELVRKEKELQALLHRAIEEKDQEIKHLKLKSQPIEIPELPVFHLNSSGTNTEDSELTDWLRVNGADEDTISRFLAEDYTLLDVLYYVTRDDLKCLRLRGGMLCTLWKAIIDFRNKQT
Chain of HIPK1 (human) (Q86Z02 whole entry, looked up): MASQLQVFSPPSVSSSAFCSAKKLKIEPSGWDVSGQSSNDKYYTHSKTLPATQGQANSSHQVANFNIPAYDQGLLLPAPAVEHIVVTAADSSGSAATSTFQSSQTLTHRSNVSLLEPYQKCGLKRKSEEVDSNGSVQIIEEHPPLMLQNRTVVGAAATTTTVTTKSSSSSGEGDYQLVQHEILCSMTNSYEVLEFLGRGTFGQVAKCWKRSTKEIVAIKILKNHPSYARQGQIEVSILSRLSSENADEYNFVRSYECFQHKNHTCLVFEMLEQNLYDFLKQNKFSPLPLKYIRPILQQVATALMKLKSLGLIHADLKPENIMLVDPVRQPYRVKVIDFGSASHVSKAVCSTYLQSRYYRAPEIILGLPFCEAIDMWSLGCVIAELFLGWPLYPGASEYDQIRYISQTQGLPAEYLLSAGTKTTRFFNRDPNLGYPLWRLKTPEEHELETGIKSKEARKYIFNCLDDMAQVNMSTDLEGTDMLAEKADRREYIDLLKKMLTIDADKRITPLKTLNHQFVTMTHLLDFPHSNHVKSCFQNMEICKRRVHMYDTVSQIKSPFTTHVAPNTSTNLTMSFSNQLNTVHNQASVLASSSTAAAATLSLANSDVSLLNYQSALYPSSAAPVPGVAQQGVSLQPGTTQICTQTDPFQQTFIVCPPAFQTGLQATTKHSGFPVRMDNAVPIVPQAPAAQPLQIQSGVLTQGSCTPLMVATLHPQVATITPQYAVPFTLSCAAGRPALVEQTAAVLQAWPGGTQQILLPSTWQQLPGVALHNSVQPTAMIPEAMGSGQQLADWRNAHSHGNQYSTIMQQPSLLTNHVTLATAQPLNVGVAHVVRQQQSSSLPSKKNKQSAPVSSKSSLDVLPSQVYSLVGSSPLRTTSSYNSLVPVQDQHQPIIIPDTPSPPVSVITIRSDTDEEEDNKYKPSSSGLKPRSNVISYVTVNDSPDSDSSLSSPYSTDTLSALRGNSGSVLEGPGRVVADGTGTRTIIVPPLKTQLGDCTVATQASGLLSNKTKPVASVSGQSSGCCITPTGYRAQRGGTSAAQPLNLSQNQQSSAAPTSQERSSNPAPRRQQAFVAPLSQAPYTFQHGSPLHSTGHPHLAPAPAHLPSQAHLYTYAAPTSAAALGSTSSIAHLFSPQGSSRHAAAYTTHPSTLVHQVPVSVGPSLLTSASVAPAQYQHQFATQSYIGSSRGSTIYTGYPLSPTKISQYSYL
Chain of PIM1 (human) (P11309 whole entry, looked up): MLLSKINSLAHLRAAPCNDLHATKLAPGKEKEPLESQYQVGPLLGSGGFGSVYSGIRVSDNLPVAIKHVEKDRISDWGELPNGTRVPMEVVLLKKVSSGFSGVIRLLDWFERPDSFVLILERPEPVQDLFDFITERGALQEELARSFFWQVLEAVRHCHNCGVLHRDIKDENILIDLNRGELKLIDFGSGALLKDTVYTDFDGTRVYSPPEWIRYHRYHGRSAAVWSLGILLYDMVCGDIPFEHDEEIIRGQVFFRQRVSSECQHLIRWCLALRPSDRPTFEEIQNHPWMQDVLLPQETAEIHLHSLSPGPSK
Chain of CLK3 (human) (P49761 whole entry, looked up): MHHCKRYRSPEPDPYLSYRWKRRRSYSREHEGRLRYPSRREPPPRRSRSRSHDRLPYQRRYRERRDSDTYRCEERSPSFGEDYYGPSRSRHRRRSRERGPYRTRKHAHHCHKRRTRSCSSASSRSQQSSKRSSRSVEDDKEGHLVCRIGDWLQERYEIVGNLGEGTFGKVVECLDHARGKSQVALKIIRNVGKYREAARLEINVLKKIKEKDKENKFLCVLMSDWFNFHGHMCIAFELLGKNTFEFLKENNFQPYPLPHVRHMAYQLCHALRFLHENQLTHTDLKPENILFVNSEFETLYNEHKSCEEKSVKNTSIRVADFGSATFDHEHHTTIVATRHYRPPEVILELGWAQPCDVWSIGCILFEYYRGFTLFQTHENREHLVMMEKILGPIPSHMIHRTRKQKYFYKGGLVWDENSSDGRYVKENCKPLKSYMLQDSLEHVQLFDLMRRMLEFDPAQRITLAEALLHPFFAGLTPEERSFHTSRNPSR
Chain of DAPK2 (human) (Q9UIK4 whole entry, looked up): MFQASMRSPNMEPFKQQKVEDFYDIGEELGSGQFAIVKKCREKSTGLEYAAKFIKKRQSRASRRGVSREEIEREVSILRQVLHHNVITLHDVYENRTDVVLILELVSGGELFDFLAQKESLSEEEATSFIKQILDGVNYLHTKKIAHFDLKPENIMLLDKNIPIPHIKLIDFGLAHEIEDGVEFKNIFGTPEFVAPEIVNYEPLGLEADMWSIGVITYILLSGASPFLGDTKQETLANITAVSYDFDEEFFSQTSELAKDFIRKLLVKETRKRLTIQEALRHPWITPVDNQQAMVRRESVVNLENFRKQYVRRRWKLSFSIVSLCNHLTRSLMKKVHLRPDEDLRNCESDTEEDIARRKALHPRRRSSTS
Chain of PLK4 (human) (O00444 whole entry, looked up): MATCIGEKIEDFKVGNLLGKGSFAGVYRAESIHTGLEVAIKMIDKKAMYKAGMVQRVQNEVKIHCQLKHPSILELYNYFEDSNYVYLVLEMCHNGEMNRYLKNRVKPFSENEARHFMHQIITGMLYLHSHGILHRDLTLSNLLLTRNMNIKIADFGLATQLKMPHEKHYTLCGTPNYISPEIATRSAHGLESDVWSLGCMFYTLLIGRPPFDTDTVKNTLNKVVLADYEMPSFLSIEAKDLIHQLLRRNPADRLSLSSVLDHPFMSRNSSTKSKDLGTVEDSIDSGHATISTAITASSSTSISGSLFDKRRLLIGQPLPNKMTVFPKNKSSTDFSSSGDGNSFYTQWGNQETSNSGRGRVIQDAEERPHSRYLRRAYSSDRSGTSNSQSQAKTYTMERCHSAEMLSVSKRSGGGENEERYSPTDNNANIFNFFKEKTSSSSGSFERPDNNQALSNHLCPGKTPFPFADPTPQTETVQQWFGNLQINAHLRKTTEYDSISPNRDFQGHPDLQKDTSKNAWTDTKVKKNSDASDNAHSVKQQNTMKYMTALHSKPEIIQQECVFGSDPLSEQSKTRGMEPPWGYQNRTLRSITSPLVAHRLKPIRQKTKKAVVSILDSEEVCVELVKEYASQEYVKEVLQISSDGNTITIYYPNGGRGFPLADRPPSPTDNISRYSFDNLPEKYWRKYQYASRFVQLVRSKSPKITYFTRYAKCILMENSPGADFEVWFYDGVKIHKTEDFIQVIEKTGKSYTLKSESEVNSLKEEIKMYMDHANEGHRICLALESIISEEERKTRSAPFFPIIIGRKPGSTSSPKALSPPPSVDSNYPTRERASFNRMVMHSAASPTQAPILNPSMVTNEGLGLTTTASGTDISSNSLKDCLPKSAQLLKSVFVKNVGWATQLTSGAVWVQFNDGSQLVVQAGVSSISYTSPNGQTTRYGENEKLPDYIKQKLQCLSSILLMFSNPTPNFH
Chain of MAP2K3 (human) (P46734 whole entry, looked up): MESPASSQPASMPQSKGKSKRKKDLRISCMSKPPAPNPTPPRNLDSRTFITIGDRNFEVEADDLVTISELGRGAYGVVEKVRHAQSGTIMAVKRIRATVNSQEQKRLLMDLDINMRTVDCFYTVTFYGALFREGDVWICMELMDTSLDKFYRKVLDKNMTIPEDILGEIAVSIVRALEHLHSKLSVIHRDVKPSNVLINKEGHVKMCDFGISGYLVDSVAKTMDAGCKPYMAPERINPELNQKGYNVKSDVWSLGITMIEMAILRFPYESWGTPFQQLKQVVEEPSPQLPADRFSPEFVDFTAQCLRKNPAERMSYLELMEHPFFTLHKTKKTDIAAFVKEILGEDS

As for `N=C1NC(=O)/C(=C/c2ccc(-c3ccccc3O)o2)S1`, the kinase still bound, per cent of control at MAP2K3 (human) amounted to 3.4%; at MAP3K5 (human), 19%; at PIM2 (human), 1.4%; on CLK3 (human), 12%; at CAMKK1 (human), 13%; on STK17A (human) it was 0.4%. Also, the kinase still bound, per cent of control at RIPK4 (human) turned out to be 5.2%; at PLK4 (human) it was 3.2%; in test [1] it was 14%; at MYLK (human), 14%; at DYRK1B (human) it was 1.8%; at MYLK3 (human), 29%. For the same molecule, the kinase still bound, per cent of control on PIP5K1A (human) came to 11%; at ULK2 (human), 12%; at STK17B (human), 2%; on MYLK4 (human), 5.9%; on PIM1 (human), 1.4%; at DAPK2 (human) it was 3.2%. The values for the kinase still bound, per cent of control at HIPK1 (human) and on CAMKK2 (human) were 1.4% and 18%, respectively.

Take `N=C1NC(=O)/C(=C/c2ccc(-c3ccc(C(N)=O)cc3O)o2)S1`: the kinase still bound, per cent of control is 31% at MAP3K5 (human); 0.8% at PIM2 (human); 4.2% on CLK3 (human); 16% on CAMKK1 (human); 0.3% on STK17A (human); 7.9% on RIPK4 (human). The kinase still bound, per cent of control on PLK4 (human) was determined as 8.8%; in [1] it was 32%; on DYRK1B (human), 5.6%; on MYLK3 (human), 22%; on TTK (human) it was 34%; on STK17B (human), 1.5%. Besides, the kinase still bound, per cent of control on MKNK1 (human) turned out to be 13%; on MYLK4 (human), 6%; at PIM1 (human), 3%; at DAPK2 (human) it was 24%; on HIPK1 (human), 0.35%; at CAMKK2 (human), 33%.

For the molecule `N=C1NC(=O)/C(=C/c2ccc(-c3ccc(F)cc3O)o2)S1`, the kinase still bound, per cent of control on MAP2K3 (human) worked out at 3.2%; on MAP3K5 (human), 14%; on PIM2 (human), 1.4%; on CLK3 (human), 11%; on CAMKK1 (human) it was 14%; at STK17A (human), 0.3%. Also, the kinase still bound, per cent of control at RIPK4 (human) stood at 4.2%; at PLK4 (human), 4.6%; in [1] it was 26%; on RIPK2 (human), 34%; on DYRK1B (human), 3.6%; at MYLK3 (human), 16%. The kinase still bound, per cent of control worked out at 14% on ULK2 (human); 2.9% on STK17B (human); 24% on CSNK1D (human); 15% at MKNK1 (human); 8.1% at MYLK4 (human); 3.8% on PIM1 (human). Also, the values for the kinase still bound, per cent of control on DAPK2 (human), at HIPK1 (human) and at CAMKK2 (human) were 4.1%, 0.15% and 22%, respectively.

Take `CS(=O)(=O)Nc1ccc(-c2cc(/C=C3\SC(=N)NC3=O)c[nH]c2=O)cc1`: the kinase still bound, per cent of control on MAP2K3 (human) is 10%; at MAP3K5 (human), 4.6%; at PIM2 (human), 3.4%; on KIT (human), 22%; in test [2], 32%; on CLK3 (human) it was 2.4%. Moreover, the kinase still bound, per cent of control on CAMKK1 (human) stood at 33%; at NEK2 (human), 19%; at STK17A (human), 3.4%; in test [3] it was 19%; at PLK4 (human), 24%; at RIOK2 (human) it was 33%. In addition, the kinase still bound, per cent of control in [1] came out at 29%; on RIPK2 (human), 11%; at DYRK1B (human), 3.2%; at FLT3 (human) it was 8.6%; on MAP4K2 (human), 12%; at TTK (human), 33%. In addition, the kinase still bound, per cent of control at MAP4K4 (human) was determined as 25%; on STK17B (human), 31%; at PIM1 (human), 9.5%; at DAPK2 (human), 2.2%; at ACVR1 (human) it was 27%; on HIPK1 (human) it was 0.5%. This molecule also returned a kinase still bound, per cent of control at CAMKK2 (human) of 31%.
